# In ChEMBL document CHEMBL3885881, “DrugMatrix”:
# Organism: Rattus norvegicus
# Assay: DrugMatrix - Regimen: Daily Repeat
# Format: toxicity, organism-based, Sprague-Dawley
# Set-up: regimen Daily Repeat, gender Male, age 6-8 weeks
# Conditions: in vivo, sc, route subcutaneous, […]; for ABSOLUTE BASOPHIL / ABSOLUTE EOSINOPHIL / ABSOLUTE LYMPHOCYTE / ABSOLUTE MONOCYTE / ABSOLUTE SEGMENTED NEUTROPHIL / BASOPHIL / EOSINOPHIL / ERYTHROCYTE COUNT / HEMATOCRIT / HEMOGLOBIN / LEUKOCYTE COUNT / LYMPHOCYTE / MEAN CORPUSCULAR HEMOGLOBIN / MEAN CORPUSCULAR HEMOGLOBIN CONCENTRATION / MEAN CORPUSCULAR VOLUME / MONOCYTE / NEUTROPHIL / NUCLEATED RED BLOOD CELLS / PLATELET COUNT: tissue Blood; for ALANINE AMINOTRANSFERASE / ALBUMIN / ALKALINE PHOSPHATASE / ASPARTATE AMINOTRANSFERASE / BLOOD UREA NITROGEN / CARBON DIOXIDE / CHLORIDE / CHOLESTEROL / CREATINE PHOSPHOKINASE / CREATININE / GLUCOSE / LACTATE DEHYDROGENASE / LIPASE / PHOSPHORUS / POTASSIUM / SODIUM / TOTAL BILIRUBIN / TOTAL PROTEIN / URIC ACID: tissue Plasma
# [1] = 14 mg/kg, 120 h, dose level Low, time 5 day
# [2] = 140 mg/kg, 72 h, dose level High, time 3 day
# [3] = 140 mg/kg, 120 h, dose level High, time 5 day
structure (smiles),measurement,setting,value
CCN(CC)CCOCCC1=CCC2CC1C2(C)C (centres undefined) [MYRTECAINE],ABSOLUTE BASOPHIL,[1],0 CELLS/uL
same,ABSOLUTE EOSINOPHIL,[1],435.67 CELLS/uL
same,ABSOLUTE LYMPHOCYTE,[1],16182.67 CELLS/uL
same,ABSOLUTE MONOCYTE,[1],0 CELLS/uL
same,ABSOLUTE SEGMENTED NEUTROPHIL,[1],2215 CELLS/uL
same,BASOPHIL,[1],0%
same,EOSINOPHIL,[1],2.33%
same,ERYTHROCYTE COUNT,[1],6.14 x10E6/uL
same,HEMATOCRIT,[1],39.17%
same,HEMOGLOBIN,[1],15.53 G/DL
same,LEUKOCYTE COUNT,[1],18.83 x10E3/uL
same,LYMPHOCYTE,[1],86%
same,MEAN CORPUSCULAR HEMOGLOBIN,[1],25.33 pg
same,MEAN CORPUSCULAR HEMOGLOBIN CONCENTRATION,[1],39.7 G/DL
same,MEAN CORPUSCULAR VOLUME,[1],63.8 fL
same,MONOCYTE,[1],0%
same,NEUTROPHIL,[1],11.67%
same,NUCLEATED RED BLOOD CELLS,[1],0 /100WBC
same,PLATELET COUNT,[1],1530.33 x10E3/uL
same,ALANINE AMINOTRANSFERASE,[1],58 u/L
same,ALBUMIN,[1],4.53 G/DL
same,ALKALINE PHOSPHATASE,[1],470.67 u/L
same,ASPARTATE AMINOTRANSFERASE,[1],83.67 u/L
same,BLOOD UREA NITROGEN,[1],17.67 mg/dL
same,CARBON DIOXIDE,[1],31.67 mmol/L
same,CHLORIDE,[1],104 MEQ/L
same,CHOLESTEROL,[1],76.67 mg/dL
same,CREATINE PHOSPHOKINASE,[1],162.33 u/L
same,CREATININE,[1],0.26 mg/dL
same,GLUCOSE,[1],157.67 mg/dL
same,LACTATE DEHYDROGENASE,[1],142 u/L
same,LIPASE,[1],9.67 u/L
same,PHOSPHORUS,[1],14.37 mg/dL
same,POTASSIUM,[1],7.28 MEQ/L
same,SODIUM,[1],151.27 MEQ/L
same,TOTAL BILIRUBIN,[1],0.3 mg/dL
same,TOTAL PROTEIN,[1],6.67 G/DL
same,URIC ACID,[1],2.23 mg/dL
same,ABSOLUTE BASOPHIL,[2],0 CELLS/uL
same,ABSOLUTE EOSINOPHIL,[2],42 CELLS/uL
same,ABSOLUTE LYMPHOCYTE,[2],11279.33 CELLS/uL
same,ABSOLUTE MONOCYTE,[2],191.33 CELLS/uL
same,ABSOLUTE SEGMENTED NEUTROPHIL,[2],620.67 CELLS/uL
same,BASOPHIL,[2],0%
same,EOSINOPHIL,[2],0.33%
same,ERYTHROCYTE COUNT,[2],5.34 x10E6/uL
same,HEMATOCRIT,[2],33.37%
same,HEMOGLOBIN,[2],13.6 G/DL
same,LEUKOCYTE COUNT,[2],12.13 x10E3/uL
same,LYMPHOCYTE,[2],93%
same,MEAN CORPUSCULAR HEMOGLOBIN,[2],25.53 pg
same,MEAN CORPUSCULAR HEMOGLOBIN CONCENTRATION,[2],40.77 G/DL
same,MEAN CORPUSCULAR VOLUME,[2],62.57 fL
same,MONOCYTE,[2],1.67%
same,NEUTROPHIL,[2],5%
same,NUCLEATED RED BLOOD CELLS,[2],0 /100WBC
same,PLATELET COUNT,[2],1370.67 x10E3/uL
same,ALANINE AMINOTRANSFERASE,[2],61.67 u/L
same,ALBUMIN,[2],3.67 G/DL
same,ALKALINE PHOSPHATASE,[2],346 u/L
same,ASPARTATE AMINOTRANSFERASE,[2],92 u/L
same,BLOOD UREA NITROGEN,[2],13.33 mg/dL
same,CARBON DIOXIDE,[2],30.33 mmol/L
same,CHLORIDE,[2],100.33 MEQ/L
same,CHOLESTEROL,[2],67 mg/dL
same,CREATINE PHOSPHOKINASE,[2],447 u/L
same,CREATININE,[2],0.17 mg/dL
same,GLUCOSE,[2],155.33 mg/dL
same,LACTATE DEHYDROGENASE,[2],247.33 u/L
same,LIPASE,[2],8 u/L
same,PHOSPHORUS,[2],13.73 mg/dL
same,POTASSIUM,[2],7.09 MEQ/L
same,SODIUM,[2],144.03 MEQ/L
same,TOTAL BILIRUBIN,[2],0.2 mg/dL
same,TOTAL PROTEIN,[2],5.6 G/DL
same,URIC ACID,[2],2.03 mg/dL
same,ABSOLUTE BASOPHIL,[3],0 CELLS/uL
same,ABSOLUTE EOSINOPHIL,[3],174.67 CELLS/uL
same,ABSOLUTE LYMPHOCYTE,[3],14614 CELLS/uL
same,ABSOLUTE MONOCYTE,[3],386 CELLS/uL
same,ABSOLUTE SEGMENTED NEUTROPHIL,[3],2992 CELLS/uL
same,BASOPHIL,[3],0%
same,EOSINOPHIL,[3],1%
same,ERYTHROCYTE COUNT,[3],6.17 x10E6/uL
same,HEMATOCRIT,[3],37.83%
same,HEMOGLOBIN,[3],14.87 G/DL
same,LEUKOCYTE COUNT,[3],18.17 x10E3/uL
same,LYMPHOCYTE,[3],81.33%
same,MEAN CORPUSCULAR HEMOGLOBIN,[3],24.07 pg
same,MEAN CORPUSCULAR HEMOGLOBIN CONCENTRATION,[3],39.33 G/DL
same,MEAN CORPUSCULAR VOLUME,[3],61.3 fL
same,MONOCYTE,[3],2.33%
same,NEUTROPHIL,[3],15.33%
same,NUCLEATED RED BLOOD CELLS,[3],0 /100WBC
same,PLATELET COUNT,[3],1631 x10E3/uL
same,ALANINE AMINOTRANSFERASE,[3],84.67 u/L
same,ALBUMIN,[3],3.97 G/DL
same,ALKALINE PHOSPHATASE,[3],328 u/L
same,ASPARTATE AMINOTRANSFERASE,[3],111.67 u/L
same,BLOOD UREA NITROGEN,[3],16 mg/dL
same,CARBON DIOXIDE,[3],26.33 mmol/L
same,CHLORIDE,[3],104 MEQ/L
same,CHOLESTEROL,[3],74.67 mg/dL
same,CREATINE PHOSPHOKINASE,[3],356 u/L
same,CREATININE,[3],0.2 mg/dL
same,GLUCOSE,[3],164.67 mg/dL
same,LACTATE DEHYDROGENASE,[3],370 u/L
same,LIPASE,[3],12 u/L
same,PHOSPHORUS,[3],13.97 mg/dL
same,POTASSIUM,[3],6.94 MEQ/L
same,SODIUM,[3],146.77 MEQ/L
same,TOTAL BILIRUBIN,[3],0.17 mg/dL
same,TOTAL PROTEIN,[3],5.97 G/DL
same,URIC ACID,[3],2.6 mg/dL
